According to ChEMBL document CHEMBL2094195, “Structure-activity relationship data for a series of N-(phenylmehtyl)-2-(1H-pyrazol-4-yl)acetamide and N-(phenylmethyl)2-(4-isoxazolyl) acetamide antagonists of the P2X7 receptor (Supplementary Bioactivity Data for publication CHEMBL1157114)”:
pIC50: −log10 of the molar value.

Target: T1, P2X purinoceptor 7 (Homo sapiens, UniProt Q99572)
T1 sequence (Q99572 whole entry): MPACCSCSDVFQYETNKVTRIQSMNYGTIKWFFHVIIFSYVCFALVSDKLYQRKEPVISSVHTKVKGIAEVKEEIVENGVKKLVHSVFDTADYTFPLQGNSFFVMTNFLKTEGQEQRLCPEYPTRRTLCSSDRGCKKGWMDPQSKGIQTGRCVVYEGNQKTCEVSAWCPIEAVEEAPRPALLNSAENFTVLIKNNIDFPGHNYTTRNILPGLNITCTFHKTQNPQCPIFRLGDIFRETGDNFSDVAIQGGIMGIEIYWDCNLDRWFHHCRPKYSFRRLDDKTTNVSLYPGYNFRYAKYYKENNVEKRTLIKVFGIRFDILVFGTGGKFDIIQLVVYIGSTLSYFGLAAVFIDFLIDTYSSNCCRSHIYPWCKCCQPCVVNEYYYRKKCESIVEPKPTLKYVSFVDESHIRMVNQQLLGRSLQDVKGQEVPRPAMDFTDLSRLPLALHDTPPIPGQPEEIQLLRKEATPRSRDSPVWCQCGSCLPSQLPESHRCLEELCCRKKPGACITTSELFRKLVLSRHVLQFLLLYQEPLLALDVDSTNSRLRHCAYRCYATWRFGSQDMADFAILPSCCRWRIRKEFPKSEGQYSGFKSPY
Assay: SUPPLEMENTARY: Inhibition of human P2X7 receptor assessed as inhibition of ethidium bromide accumulation. Same assay as CHEMBL1103860

| SMILES | pIC50 |
| --- | --- |
| Cc1noc(C)c1CC(=O)NCc1cccc(Cl)c1C | 7.60 |
| Cc1noc(C)c1CC(=O)NCc1c(F)cccc1Cl | 6.40 |
| Cc1noc(C)c1CC(=O)NCc1ccc(F)cc1Br | 7.30 |
| Cc1cc(F)ccc1CNC(=O)Cc1c(C)noc1C | 7.00 |
| Cc1ccc(F)c(CNC(=O)Cc2c(C)noc2C)c1Cl | 6.70 |
| CC(C)c1noc(C(C)C)c1CC(=O)NCc1ccc(F)cc1Cl | 6.80 |
| Cc1ccc(CNC(=O)Cc2c(C)noc2C)c(C)c1 | 6.60 |
| Cc1noc(C)c1CC(=O)NCc1ccc(Cl)c(Cl)c1 | 6.50 |
| Cc1noc(C)c1CC(=O)NCc1cccc(Cl)c1Cl | 7.50 |
| Cc1n[nH]c(C)c1CC(=O)NCc1ccccc1Br | 6.60 |
| Cc1cccc(Cl)c1CNC(=O)Cc1c(C)n[nH]c1C | 7.80 |
| Cc1noc(C)c1CC(=O)NCc1ccc(C(F)(F)F)c(F)c1 | 6.40 |
| Cc1n[nH]c(C(F)(F)F)c1CC(=O)NCc1cccc(C(F)(F)F)c1Cl | 8.60 |
| Cc1cccc(Cl)c1CNC(=O)Cc1c(C)noc1C | 7.60 |
| Cc1n[nH]c(C)c1CC(=O)N[C@H]1CCCc2ccccc21 | 7.00 |
| Cc1noc(C)c1CC(=O)NCc1ccccc1Br | 6.30 |
| Cc1noc(C)c1CC(=O)NCc1ccc(Cl)cc1 | 6.10 |
| Cc1cc(Cl)ccc1CNC(=O)Cc1c(C)noc1C | 7.60 |
| Cc1n[nH]c(C)c1CC(=O)NCc1ccc(Cl)c(Cl)c1 | 6.70 |
| Cc1ccccc1CNC(=O)Cc1c(C)n[nH]c1C | 6.80 |
| Cc1noc(C)c1CC(=O)NCc1c(Cl)cccc1Cl | 7.20 |
| Cc1noc(C)c1CC(=O)NCc1cccc(C(F)(F)F)c1C | 8.00 |
| Cc1ccccc1CNC(=O)Cc1c(C)noc1C | 6.30 |
| Cc1n[nH]c(C)c1CC(=O)NCc1ccc(C(F)(F)F)cc1 | 6.40 |
| Cc1cccc(CNC(=O)Cc2c(C)noc2C)c1C | 6.70 |
| Cc1n[nH]c(C)c1CC(=O)NCc1cc(Cl)cc(Cl)c1 | 6.00 |
| Cc1n[nH]c(C)c1CC(=O)NCc1c(Cl)cccc1Cl | 7.50 |
| Cc1noc(C)c1CC(=O)NCc1ccccc1Cl | 7.00 |
| Cc1noc(C)c1CC(=O)NCc1ccc(Cl)c(C(F)(F)F)c1 | 6.80 |

Now from value to molecule:

| pIC50 | SMILES |
| --- | --- |
| 6.10 | Cc1ccc(CNC(=O)Cc2c(C)noc2C)c(F)c1F |
| 6.40 | Cc1n[nH]c(C)c1CC(=O)NCc1cc(F)ccc1Cl |
| 6.80 | CC(C)c1n[nH]c(C(C)C)c1CC(=O)NCc1ccc(F)c(F)c1F |
| 8.30 | Cc1n[nH]c(C(F)(F)F)c1CC(=O)NCc1ccc(F)c(F)c1Cl |
| 7.50 | Cc1noc(C)c1CC(=O)NCc1cccc(C(F)(F)F)c1F |
| 6.70 | Cc1noc(C)c1CC(=O)NCc1ccc(F)cc1C(F)(F)F |
| 7.40 | Cc1noc(C)c1CC(=O)NCc1ccc(F)c(Cl)c1F |
| 7.30 | Cc1n[nH]c(C)c1CC(=O)NCc1ccc(Br)cc1F |
| 7.50 | Cc1noc(C)c1CC(=O)NCc1ccc(F)c(F)c1Cl |
| 6.80 | Cc1noc(C)c1CC(=O)NCc1ccc(F)c(F)c1F |
| 7.10 | Cc1ccc(F)c(CNC(=O)Cc2c(C)n[nH]c2C)c1Cl |
| 8.30 | Cc1n[nH]c(C)c1CC(=O)NCc1cccc(Cl)c1C |
| 6.80 | Cc1ccc(CNC(=O)Cc2c(C)n[nH]c2C)c(C)c1 |
| 6.50 | Cc1n[nH]c(C)c1CC(=O)NCc1cc(Cl)ccc1Cl |
| 6.80 | Cc1n[nH]c(C)c1CC(=O)NCc1c(F)cccc1Cl |
| 7.30 | Cc1n[nH]c(C)c1CC(=O)NCc1ccc(F)c(C(F)(F)F)c1 |
| 7.40 | CCc1noc(CC)c1CC(=O)NCc1ccc(F)cc1Cl |
| 6.70 | Cc1noc(C)c1CC(=O)NCc1cccc(Cl)c1F |
| 6.20 | Cc1ccc(Cl)c(CNC(=O)Cc2c(C)n[nH]c2C)c1F |
| 7.50 | CCc1n[nH]c(CC)c1CC(=O)NCc1ccc(F)c(F)c1F |
| 7.20 | Cc1n[nH]c(C)c1CC(=O)NCc1ccc(F)c(F)c1F |
| 6.30 | Cc1noc(C)c1CC(=O)NCc1ccc(F)cc1F |
| 6.80 | Cc1ccc(CNC(=O)Cc2c(C)noc2C)c(F)c1 |
| 6.80 | Cc1[nH]nc(C(C)(C)C)c1CC(=O)NCc1ccc(F)cc1Cl |
| 6.00 | Cc1noc(C)c1CC(=O)NCc1cccc(F)c1C |
